Measured values as given in patent publication US11602578B2, “Crosslinkable polypeptide and hyaluronic acid coatings” (Université de Strasbourg, priority 2017, dated 2023).

Tests used:
[1] = system: S. aureus; assay: PAR in solution: S. aureus growth and minimal inhibitory concentration in MHB medium; format: cell-based, Staphylococcus aureus; conditions: for inhibition of bacterial growth by PAR in solution (in words): at 1 μM; for inhibition of S. aureus growth by PAR in solution (in words): concentrations up to 0.04 mg·mL^−1, 24 h at 37° C. in MHB; for times less active than PAR100 or PAR200 chains: from the MICs determined in solution
Experimental: PAR with 10, 30, 100 or 200 arginine residues per chain were tested. Each PAR was incubated 24 h at 37° C. in 300 μL of MHB medium with S. aureus (A620=0.001). Pathogen growth of 0% corresponds to medium with antibiotics (and without PAR) and 100% to medium without PAR. Each value corresponds to the mean value of 3 individual experiments (3 samples per experiment and condition) and error bars correspond to standard deviations. For each concentration, the first column represents the normalized pathogen growth of S. aureus for PAR10, the 2nd column for PAR30, the third column for PAR100 and the fourth for PAR200.
In the following the inventors of the present invention wanted to further elucidate the underlying mechanism that confer to the coatings of the invention the strong inhibitory property on the surface and in the supernatant. As an example the (PAR30/HA)24 coating was further investigated. Accordingly, the minimal inhibitory concentration (MIC) of PAR in solution was determined using bacterial assay as described in Experimental Section. […] Finally for PAR at concentrations of 0.01 mg·mL^−1, inhibition of 100% was shown only for PAR30. Longer or shorter PAR chains (PAR10, PAR100 or PAR200) inhibits only partially (less than 40%) S. aureus growth. […] This reasoning is valid when PAR concentration values are expressed in mass (mg·mL^−1) thus it is related to the number of arginine monomers. However when the graph is plotted with concentrations in μM (and thus proportional in number of chains), which means that concentration is related to number of chains, different interpretation can be made. […] Moreover the MIC100 values obtained for PAR30, PAR100 or PAR200 ranges at very low concentrations (between 1 and 2 μM) which is remarkable when compared to well-known antimicrobial peptides (for example 30 μM for cateslytin with S. aureus, see Adv. Funct. Mater. 2013, 23, 4801-4809). PAR is thus a powerful candidate to fight against S. aureus.

[2] = system: S. aureus; conditions: with S. aureus; Adv. Funct. Mater. 2013, 23, 4801-4809; cited from earlier work

poly-L-arginine [PAR100]
inhibition of bacterial growth by PAR in solution (in words) [1]: totally inhibit
inhibition of S. aureus growth by PAR in solution (in words) [1]: totally inhibited

cateslytin
MIC of a known antimicrobial peptide [2]: 30 µM

poly-L-arginine [PAR200]
inhibition of S. aureus growth by PAR in solution ([1]; 0.02 mg·mL^−1, 24 h at 37° C. in MHB): about 45%
inhibition of bacterial growth by PAR in solution (in words) [1]: totally inhibit
inhibition of S. aureus growth by PAR in solution (in words) [1]: totally inhibited

poly-L-arginine [PAR30]
inhibition of S. aureus growth by PAR in solution ([1]; 0.01 mg·mL^−1, 24 h at 37° C. in MHB): 100%
MIC90 ([1]; S. aureus, PAR in solution): about 2 μM
concentration needed to totally inhibit bacterial growth in solution ([1]; S. aureus, PAR in solution): about 10 μM
inhibition of S. aureus growth by PAR in solution (in words) [1]: totally inhibited
times less active than PAR100 or PAR200 chains [1]: 2 times

poly-L-arginine [PAR10]
concentration needed to totally inhibit bacterial growth in solution ([1]; S. aureus, PAR in solution): about 10 μM
inhibition of S. aureus growth by PAR in solution (in words) [1]: totally inhibited
times less active than PAR100 or PAR200 chains [1]: 10 times
